Reference: patent publication US5965533A, “Atrial natriuretic peptide (ANP) as an additive to peritoneal dialysis solutions” (Baxter International Inc., priority 1997, dated 1999)

Columns and labels:
sheep = assay: ANP in 4.25% dextrose DIANEAL peritoneal dialysis solution in conscious sheep, 6 hour dwell; assay type: in vivo; conditions: mean, n = 5
Procedure: In a second experiment performed on sheep, ANP was added to a 4.25% dextrose DIANEAL® solution to provide a final concentration of ANP in the solution of […]. The dialysis solution was then infused into the peritoneal cavity of the sheep in 50 ml/kg BW volumes. The dwell time periods were 6 hours; the sheep remained conscious.
wherein pl. vol. is plasma volume; Vo is the volume of the peritoneal cavity before the commencement of the dialysis; V6 is the volume of the peritoneal cavity after six hours; LFR is lymph flow rate; Bl. rec. is blood recovery; and PC rec. is peritoneal cavity recovery.

rats = assay: Intraperitoneally administered ANP in peritoneal dialysis solution, transport characteristics in rats, 4 hour dwell; assay type: in vivo, rat
Procedure: A first experiment was performed to assess the effect of intraperitoneal administered ANP on peritoneal dialysis transport characteristics in rats. In this study, a dose of 9 μg ANP/kg BW of rat was mixed in a base solution of 2.5% dextrose DIANEAL® solution. The rats were injected with 90 ml/kg BW of either the above solution with the ANP additive or an unaltered control DIANEAL® solution.
Blood samples were taken before and after the 4 hour dwell period. Dialysate samples were collected at the start of the dwell and every 2 hours thereafter. All samples were analyzed for urea nitrogen (UN), sodium (Na), glucose, protein (prtn), and osmolality (Osm). At the end of the 4 hour dwell period, the rats were sacrificed, the abdominal walls excised, and the effluents collected and weighed.
To prepare the above ANP solution, 250 cc of DIANEAL® PD-2 solution was transferred into a 250 ml empty bag (VIAFLEX®). 10 cc of DIANEAL® PD-2 solution was injected into a vial containing […] of ANF (atrial natriuretic factor--yANF,rat,28AA sold by Peninsula Laboratories, Inc.). 1.25 cc of the DIANEAL®/ANF solution was then withdrawn with a needle and syringe and injected into the 250 ml bag containing the DIANEAL® base solution through a 0.22 μm sterile filter. The bag was then enclosed with a sampling site coupler. The control solution was similarly transferred into a new 250 ml bag (VIAFLEX®) and enclosed with a sampling site coupler.

[1] = ANP 1×10^31 7 M in 4.25% dextrose DIANEAL
[2] = ANP as additive versus control DIANEAL solution, Table 1 and FIGS. 1 and 2
[3] = rat, protein, 9 μg ANP/kg BW, 4 hour, mean ± SD
[4] = rat, urea nitrogen, 9 μg ANP/kg BW, 4 hour, mean ± SD

Substance: atrial natriuretic peptide [ANP]
- Fl. loss (sheep; [1]): 13.39 mL/kg
- LFR (lymph flow rate) (sheep; [1]): 6.45 mL/kg
- NUF (net ultra filtration) (sheep; [1]): 22.05 mL/kg
- PC rec. (peritoneal cavity recovery) (sheep; [1]): 82.12%
- Total rec. (sheep; [1]): 93.81%
- V6 (volume of the peritoneal cavity after six hours) (sheep; [1]): 0.07246 L/kg
- pl. vol. (plasma volume) (sheep; ANP in 4.25% dextrose DIANEAL, 50 ml/kg BW): 52.70 mL/kg
- Bl. rec. (blood recovery) (sheep; ANP in 4.25% dextrose DIANEAL): 11.69%
- effect on net ultrafiltration (in words) (rats; [2]): increases
- effect on sodium clearance (in words) (rats; [2]): increases
- nUF (net ultrafiltration) (rats; rat, 9 μg ANP/kg BW in 2.5% dextrose DIANEAL, 90 ml/kg BW i.p., 4 hour dwell, mean ± SD): 8.17 ± 0.52 mL
- Osm (osmolality) (rats; rat, 9 μg ANP/kg BW in 2.5% dextrose DIANEAL, 4 hour sample, mean ± SD): 308.0 ± 3.5 mOsm/kg
- D/D0 (glucose) (rats; rat, glucose, 9 μg ANP/kg BW, 4 hour, mean ± SD): 0.363 ± 0.024
- Clearance (prtn) (rats; [3]): 1.379 ± 0.117 µL/min
- D/P (prtn) (rats; [3]): 0.0106 ± 0.0009
- Clearance (Na) (rats; rat, sodium, 9 μg ANP/kg BW, 4 hour, mean ± SD): 0.1110 ± 0.0027 mL/min
- Clearance (UN) (rats; [4]): 0.106 ± 0.005 mL/min
- D/P (UN) (rats; [4]): 0.81 ± 0.04
